The target of the assay is neuraminidase. Put plainly: Inhibition kinetics. Particulars: decrease in Vmax while Km remained stable. In kind it is biochemical, influenza virus.

This note sets out measurements from article PMC4945539 (Mycobiology, 2016).

Each structure is given as a SMILES string.

For `CC1=CC(=O)C2(O1)C(c1cc3oc(=O)c4cc(O)c(O)cc4c3c(=O)o1)=Cc1cc(O)c(O)cc12` (centres unmarked) [compound 1, phelligridin E], the Kinetic mode result is given as “noncompetitive”.
Turning to `O=C1C=C(/C=C/c2ccc(O)c(O)c2)OC12C(c1cc3oc(=O)c4cc(O)c(O)cc4c3c(=O)o1)=Cc1cc(O)c(O)cc12` (centres unmarked) [compound 2, phelligridin G], the Kinetic mode entry is listed as “noncompetitive”.
